Measurements reported in patent US10155927B2, “Method for differentiation of pluripotent stem cells into cardiomyocytes” (Hoffmann-La Roche Inc., priority 2014, dated 2018).

Tests used:
[1] = test system: human embryonic stem cells (hESC) and induced pluripotent stem cells (iPSC); assay: Differentiation of pluripotent stem cells (hESC or iPSC) into cardiomyocytes; assay type: cell-based; parameters: key to Amount of cardiomyocytes obtained: (−) No cardiomyocytes obtained; (+)—(+++): Amount of cardiomyocytes obtained; (+)—(+++): Amount of cardiomyocytes obtained; (+)—(+++): Amount of cardiomyocytes obtained; conditions: for Ability to induce cardiomyocyte differentiation: other Wnt inhibitors tested instead of Wnt-C59; for Amount of cardiomyocytes obtained: Experiments I-III
Description: (§1) To initialize differentiation, the cells are incubated in insulin-free medium comprising compound 21 (3-(3-Amino-phenyl)-4-(1-methyl-1H-indol-3-yl)-pyrrole-2,5-dione, also referred to as “compound 21” or “CP21” herein; see e.g., Gong et al. (2010) Bioorganic& Medicinal Chemistry Letters 20:1693-1696) to activate the wnt-pathway. The optimal concentration of compound 21 to induce cardiomyocyte differentiation is dependent on the cell density of the pluripotent cells that are attached to the cell vessel. […] This is surprising as prior art protocols require higher concentrations of other modulators of the Wnt pathway for efficient differentiation.
(§2) The optimal concentration was identified at 2 μM. […] In one embodiment, step c) of the differentiation method comprises incubating the cells in a medium comprising 1-10 μM Wnt-C59. In one preferred embodiment step c) of the differentiation method comprises incubating the cells in a medium comprising 2 μM Wnt-C59.
Anthelmintic niclosamide and Pyrvinium were tested for their ability to induce cardiomyocyte differentiation.
Human embryonic stem cells (hESC) or induced pluripotent stem cells (iPSC) were cultured in 56 cm^2 dishes coated with Matrigel (BD Bioscience, Cat. 354277) at 37° C. and 5% CO2 in 10 ml mTeSR1 medium (Stemcell Technologies, Cat. 05850).
To propagate pluripotent stem cells by conserving their pluripotent state, hESC or iPSC were treated with the following: the cells were washed once with 10 ml PBS−/−, and afterwards incubated with 3 ml Accutase (Innovative Cell Technologies, Cat. AT-104) for 2-3 minutes at 37° C. and 5% CO2, to detach the cells.
The enzymatic reaction of Accutase was stopped with 7 ml mTeSR1 and followed by centrifugation of the cells for 3 minutes at 500×g.
The cells were resuspended in 10 ml mTeSR1, and counted. For further cultivation, 2×10^6 cells were plate on 56 cm^2 dishes with fresh coated Matrigel. Further the hESC or iPSC were cultivated in 10 ml mTeSR1 and 10 μM Rock inhibitor, Y-27632 (Millipore, Cat. SCM075) at 37° C. and 5% CO2. Subsequently, 10 ml mTeSR1 medium was changed daily and the pluripotent stem cells were cultivated to a density of 80% before passaging.
For successful differentiation into cardiomyocytes, pluripotent stem cells were plated at high density using 5.5×10^5/cm^2 of hESC or iPSC. Passaging and cultivation were performed as described above for pluripotent stem cells.
After 24 hours (day 1) the hESC or iPSC were washed once with 180 μl/cm^2 PBS−/− and the cultivation medium was changed to 180 μl/cm^2 differentiation medium.
After 24 hours (day 2) incubation with CP21, the cells were washed with PBS−/− as described above and cultivated for 48 hours in 220 μl/cm^2 differentiation medium.
After 48 hours (day 4), the cells were washed with PBS−/− as described above and cultivated for 48 hours in 220 μl/cm^2 differentiation medium comprising 2 μM Wnt-C59 (Cellagen Technology, Cat. C7641-2s, International Patent Application Publication No. WO 20101 01849), a potent Wnt signaling inhibitor, by blocking Wnt secretion.
After 48 hours (day 6), the cells were washed with PBS−/− as described above and cultivated for 48 hours in 220 μl/cm^2 differentiation medium.
After 48 hours (day 8), the cells were washed with PBS−/− as described above and cultivated for 48 hours in 220 μl/cm^2 RPMI medium comprising ascorbic acid, penicillin-streptomycin, but now including B27 plus insulin, minus vitamin A (=expansion medium)
Subsequent medium changes were performed every 48 hours using 220 μl/cm^2 expansion medium.
To test the efficiency of the differentiation process, the cardiomyocytes were characterized at differentiation day 14 by cell immunohistochemistry and Fluorescence Activated Cell Sorting (FACS) using antigens specific to cardiomyocytes.
The protocol as described above was repeated with different CP21 concentrations. The results are shown in Table 1 below: (−) No cardiomyocytes obtained, (+)—(+++): Amount of cardiomyocytes obtained.

[2] = test system: pluripotent cells (hESC or iPSC); assay: Cell viability / cell death during the differentiation protocol; assay type: cell-based
Description: as §1, §2

[3] = test system: pluripotent stem cell derived cardiomyocytes; assay: xCELLigence cardiomyocyte beating analysis; assay type: cell-based, human
Description: Isoproterenol increases the heart rate and myocardial contractility by stimulating cardiac beta-1 receptors. To detect this proarrhythmic effect in the stem cell derived cardiomyocytes, 7×10^4/cm^2 cells were plated on special E-Plate Cardio 96 (Roche, Cat. No. 05232368001) coated with 130 μl/cm^2 0.1% Gelatine for 1 hour at 37° C. After cells attached to the plate and recovered for 2 days as described above, medium was changed to iCell Cardiomyocytes Maintenance Medium (Cellular Dynamics, Cat. No.CMM-100-120-005). Cells were measured using the xCELLigence RTCA Cardio System (Roche Applied Science). 7 days after plating the cells were treated with 3 μM Isoproterenol and measured directly. Each 96-well plate was measured at a resolution of 12.9 ms. The first 3 minutes were measured without interruption and over the next 24 hours the cells were measured every 15 minutes for 1 minute duration. Activation of β-receptors on the heart induces positive chronotropic effects in cardiomyocytes. To confirm that the pluripotent stem cell derived cardiomyocytes respond to β-receptor activation, the cardiomyocytes were incubated with the β-receptor agonist isoproterenol and subsequently analysed using the xCELLigence system.

Compound: O=C(Nc1ccc([N+](=O)[O-])cc1Cl)c1cc(Cl)ccc1O [Anthelmintic niclosamide, niclosamide]
- Ability to induce cardiomyocyte differentiation [1]: did not result in a successful generation of cardiomyocytes

Compound: Cn1cc(C2=C(c3cccc(N)c3)C(=O)NC2=O)c2ccccc21 [CP21, 3-(3-Amino-phenyl)-4-(1-methyl-1H-indol-3-yl)-pyrrole-2,5-dione]
- Amount of cardiomyocytes obtained ([1]; Cp21 conc. 0.3 μM): −
- Amount of cardiomyocytes obtained ([1]; Cp21 conc. 1 μM): +
- Amount of cardiomyocytes obtained ([1]; Cp21 conc. 2 μM): ++ and +++
- Amount of cardiomyocytes obtained ([1]; Cp21 conc. 3 μM): ++ and +
- Amount of cardiomyocytes obtained ([1]; Cp21 conc. 5 μM): + and −
- Amount of cardiomyocytes obtained ([1]; Cp21 conc. 10 μM): −
- Concentration resulting in the most efficient differentiation of pluripotent stem cells into cardiomyocytes ([1]; cell density 5.5×10^5/cm^2, tested 0-10 μM at 1.8-11×10^5/cm2 hESC or iPSC): 2 µM
- Incubation time optimal for cardiogenesis ([1]; various incubation times tested, longer or shorter less efficient): 24 h
- Cell death after incubation ([2]; After 24 h CP21 incubation): strong cell death
- Concentrations showing decreased cell viability ([2]; step b) of differentiation): above 5 μM

Compound: Cc1cc(/C=C/c2ccc3cc(N(C)C)ccc3[n+]2C)c(C)n1-c1ccccc1 [Pyrvinium]
- Ability to induce cardiomyocyte differentiation [1]: did not result in a successful generation of cardiomyocytes

Compound: Cc1cc(-c2ccc(CC(=O)Nc3ccc(-c4cccnc4)cc3)cc2)ccn1 [Wnt-C59, 2-(4-(2-methylpyridin-4-yl)phenyl)-N-(4-(pyridin-3-yl)phenyl)acetamide]
- Optimal concentration for cardiomyocyte differentiation ([1]; Wnt repressor in step c), tested 1-10 μM): 2 µM
- Effect on cardiomyocytes obtained ([1]; Wnt-C59 1-10 μM, step c)): significant increase in cardiomyocytes
- Concentrations showing increased cell death ([2]; step c) of differentiation): more than 5 μM

Compound: CC(C)NCC(O)c1ccc(O)c(O)c1 (centres unmarked) [isoproterenol]
- Beating rate ([3]; 3 μM isoproterenol, untreated control 45 beats per minute): 60 beats per minute
- Effect on beating frequency ([3]; FIG. 5, xCELLigent analysis): increases beating frequency
